Tests used:
Test in all cases: cell viability (% survival relative to DMSO control); higher = less cytotoxic
Conditions in all cases: 72 h
[1] = tested on: myeloid leukemia patient primary cells Pat.14
Summary of the method: (§1)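 Mononuclear cells from patients with AML or CML were thawed, purified on Ficoll and placed in RPMI 1640 with 10% FBS at 10,000 cells/well on 384-well plates. The plates came pre-printed with 70 compounds at five tenfold concentrations spanning 1–10,000 nM, in duplicate, and cells were exposed for 72 h. CellTiter-Glo gave viability, scaled between DMSO wells and wells with 10 μM proteasome inhibitor. Where reported, area under the curve was obtained from log-logistic fits with four parameters using the drc and PharmacoGx R packages.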

[2] = tested on: myeloid leukemia patient primary cells Pat.4
Summary of the method: as §1

[3] = tested on: myeloid leukemia patient primary cells Pat.1
Summary of the method: as §1

[4] = tested on: myeloid leukemia patient primary cells Pat.8
Summary of the method: as §1

[5] = tested on: myeloid leukemia patient primary cells Pat.9
Summary of the method: as §1

[6] = tested on: myeloid leukemia patient primary cells Pat.12
Summary of the method: as §1

[7] = tested on: myeloid leukemia patient primary cells Pat.3
Summary of the method: as §1

[8] = tested on: myeloid leukemia patient primary cells Pat.5
Summary of the method: as §1

[9] = tested on: myeloid leukemia patient primary cells Pat.13
Summary of the method: as §1

SMILES: CO[C@H]1C[C@@H]2CC[C@@H](C)[C@@](O)(O2)C(=O)C(=O)N2CCCC[C@H]2C(=O)O[C@H]([C@H](C)C[C@@H]2CC[C@@H](OCCO)[C@H](OC)C2)CC(=O)[C@H](C)/C=C(\C)[C@@H](O)[C@@H](OC)C(=O)[C@H](C)C[C@H](C)/C=C/C=C/C=C/1C [Everolimus]
- cell viability ([1]; 1 nM): 90.7%
- cell viability ([1]; 10 nM): 53.5%
- cell viability ([1]; 100 nM): 96.7%
- cell viability ([1]; 1000 nM): 59.3%
- cell viability ([1]; 10000 nM): 17.4%
- cell viability ([2]; 1 nM): 64.8%
- cell viability ([2]; 10 nM): 57.9%
- cell viability ([2]; 100 nM): 47%
- cell viability ([2]; 1000 nM): 47.3%
- cell viability ([2]; 10000 nM): 41.9%
- cell viability ([3]; 1 nM): 88.6%
- cell viability ([3]; 10 nM): 56.4%
- cell viability ([3]; 100 nM): 74%
- cell viability ([3]; 1000 nM): 60.2%
- cell viability ([3]; 10000 nM): 41.2%
- cell viability ([4]; 1 nM): 67.6%
- cell viability ([4]; 10 nM): 68.8%
- cell viability ([4]; 100 nM): 56.4%
- cell viability ([4]; 1000 nM): 80.7%
- cell viability ([4]; 10000 nM): 66.5%
- cell viability ([5]; 1 nM): 64.2%
- cell viability ([5]; 10 nM): 22.3%
- cell viability ([5]; 100 nM): 87.7%
- cell viability ([5]; 1000 nM): 15.7%
- cell viability ([5]; 10000 nM): 0.492%
- cell viability ([6]; 1 nM): 96.2%
- cell viability ([6]; 10 nM): > 100%
- cell viability ([6]; 100 nM): > 100%
- cell viability ([6]; 1000 nM): 93.7%
- cell viability ([6]; 10000 nM): 99%
- cell viability ([7]; 1 nM): 78.6%
- cell viability ([7]; 10 nM): 5.05%
- cell viability ([7]; 100 nM): 94.1%
- cell viability ([7]; 1000 nM): 42.3%
- cell viability ([7]; 10000 nM): 7.24%
- cell viability ([8]; 1 nM): 49.5%
- cell viability ([8]; 10 nM): 20.5%
- cell viability ([8]; 100 nM): 23%
- cell viability ([8]; 1000 nM): 9.25%
- cell viability ([8]; 10000 nM): 0.912%
- cell viability ([9]; 1 nM): 82.2%
- cell viability ([9]; 10 nM): 82.6%
- cell viability ([9]; 100 nM): 74.8%
- cell viability ([9]; 1000 nM): 79.3%
- cell viability ([9]; 10000 nM): 43.1%

SMILES: O=C1C(SCCO)=C(SCCO)C(=O)c2ccccc21
- cell viability ([1]; 1 nM): 41.2%
- cell viability ([1]; 10 nM): 91.4%
- cell viability ([1]; 100 nM): 61.7%
- cell viability ([1]; 1000 nM): 5.04%
- cell viability ([1]; 10000 nM): 4.94%
- cell viability ([2]; 1 nM): 76.4%
- cell viability ([2]; 10 nM): 89.5%
- cell viability ([2]; 100 nM): > 100%
- cell viability ([2]; 1000 nM): 3.28%
- cell viability ([2]; 10000 nM): 2.39%
- cell viability ([3]; 1 nM): 81.5%
- cell viability ([3]; 10 nM): 92.4%
- cell viability ([3]; 100 nM): 88.1%
- cell viability ([3]; 1000 nM): < 0%
- cell viability ([3]; 10000 nM): < 0%
- cell viability ([4]; 1 nM): 74.2%
- cell viability ([4]; 10 nM): 70%
- cell viability ([4]; 100 nM): 95.1%
- cell viability ([4]; 1000 nM): 65.4%
- cell viability ([4]; 10000 nM): 0.0301%
- cell viability ([5]; 1 nM): 1.27%
- cell viability ([5]; 10 nM): 95.1%
- cell viability ([5]; 100 nM): 28.7%
- cell viability ([5]; 1000 nM): < 0%
- cell viability ([5]; 10000 nM): < 0%
- cell viability ([6]; 1 nM): 94.2%
- cell viability ([6]; 10 nM): 99.6%
- cell viability ([6]; 100 nM): 92%
- cell viability ([6]; 1000 nM): 2.07%
- cell viability ([6]; 10000 nM): < 0%
- cell viability ([7]; 1 nM): 21.4%
- cell viability ([7]; 10 nM): 97.2%
- cell viability ([7]; 100 nM): 95.5%
- cell viability ([7]; 1000 nM): 9.9%
- cell viability ([7]; 10000 nM): < 0%
- cell viability ([8]; 1 nM): 2.39%
- cell viability ([8]; 10 nM): 98.5%
- cell viability ([8]; 100 nM): 57.2%
- cell viability ([8]; 1000 nM): 2.01%
- cell viability ([8]; 10000 nM): 2.39%
- cell viability ([9]; 1 nM): 61.2%
- cell viability ([9]; 10 nM): 90.8%
- cell viability ([9]; 100 nM): 96.4%
- cell viability ([9]; 1000 nM): 76.4%
- cell viability ([9]; 10000 nM): < 0%

Source: the supplement of paper PMC8671470
